# Data from article PMC8213153 (PLoS ONE, 2021).
# Like-named read-outs stand apart in the source and are kept apart here.
# Key:
# Type in all cases: cell-based
# [1] = Cytotoxicity (MTT) assay of single and dual combinatory drugs; conditions: human
# Experimental: Each tablet containing drugs was triturated and mixed until homogenous. Approximately 50 mg equivalent mass of drugs were weighed and added to dimethyl sulfoxide in order to solubilize the drugs. The suspension was sonicated in a water bath for 15 minutes before being added to Rosewell Park Memorial Institute (RPMI) media, sonicated again and vortexed to mix it until homogenous. The suspension was then filtered through a polycarbonate membrane with a pore size of 0.45 μm and then a pore size of 0.22 μm under aseptic conditions. The filtrate was mixed with 10% foetal bovine serum and penicillin streptomycin before being vortexed to produce a homogenous mixture to be used as a stock solution. The samples were prepared by diluting the stock solution of each drug with RPMI complete media at an appropriate level of dilution to produce a determined concentration. The dual combinatory drugs mixtures were prepared by mixing appropriate amounts of two drug stock solutions in order to produce a final concentration at the required level. The combinatory drugs were evaluated at both constant and non-constant ratios to evaluate their effects on the cytotoxicity, including; antagonistic, synergistic, or additive. A constant ratio of the mixture was achieved by adding drug solutions at the same ratio, thereby increasing each drug concentration, to produce dose escalation. In contrast, at a non-constant ratio, a fixed determined concentration of drug was added to increased doses of other drug solution in order to produce different levels of drug concentration.
# The cytotoxic concentration (CC50) of drugs was performed by means of MTT assay at the Stem Cell Research and Development Center, Universitas Airlangga using human umbilical cord mesenchymal stem cells which had been obtained from human placenta tissue as approved by the Ethical Committee of Universitas Airlangga Hospital (Certificate number 101/KEH/2019 dated January 10, 2019). The cells were prepared as the primary cell culture and used for the cytotoxicity assay because of their sensitivity to chemicals. Cells were seeded into 96-well microplates at a concentration of 1x10^3 cells/well in 100 μL Alpha Minimum Essentials Medium (α-MEM, Gibco, USA) supplemented with 10% foetal bovine serum, 1% penicillin-streptomycin and 1% amphotericin-B. The plates were then incubated in a CO2 incubator at 37°C with 5% CO2 for 24 hours, at which point, the supernatant was replaced with α-MEM containing drugs at each concentration and incubated for a further 48 hours. Approximately 25μL of 3-(4,5-Dimethylthiazol-2-yl)-2,5-diphenyl tetrazolium-bromide (MTT) reagent at a concentration of 5mg/mL was subsequently added to each well and incubated for four hours at 37°C with 5% CO2. Purple formazan crystals were formed and observed under an inverted microscope. Dimethyl sulfoxide was added to each well with the complete solubilisation of formazan crystals subsequently being observed. The greater the number of formazan crystals formed, the lower the toxicity of the samples which were read for optical density of formazan using a multi reader at a measurement wavelength of 595 nm (Promega Glomax, USA). The CC50 value was analyzed by CompuSyn software (the ComboSyn Inc., accessed from www.combosyn.com).
# In this study, the cytotoxicity assay was evaluated for single and dual combinatory drugs during a period of 48 hours of drug incubation. This assay was intended to evaluate the toxicity of dual combinatory drugs on normal cells. The combination ratios were calculated taking into consideration the usual therapeutic doses and plasma peak concentrations of the drugs. To determine this cytotoxicity, the drugs were mixed at both constant and non-constant ratios.
# SARS-CoV-2 virus = test: microbe, parasite or virus in culture; conditions: for IC50: Severe acute respiratory syndrome coronavirus 2, Vero
# IL-10 = IL-10 level of virus-infected Vero cells (ELISA)
# Experimental: (§1) To enable measurement of IL-6, IL-10 and TNF-α levels, the culture medium of the treated cells was collected in sterile micro-tubes and centrifuged at 3,500 rpm for 20 minutes. The supernatants were carefully collected and diluted with aquadest at a 1:5 volume ratio and vortexed until homogenous. The samples were deposited onto a well-plate, added to ELISA reagents (Bioassay Technology Laboratory, Shanghai, China), and incubated at 37°C for 60 minutes. Reagent substrate solution was then added to the well and incubated for ten minutes at 37°C. The samples were measured for antigen concentration using the optical density (OD) plotted into the standard curves of IL-6, IL-10, and TNF-α.
# IL-6 = IL-6 level of virus-infected Vero cells (ELISA)
# Experimental: as §1
# TNF-α = TNF-α level of virus-infected Vero cells (ELISA)
# Experimental: as §1
# [2] = HYDROXYCHLOROQUINE-DOXYCYCLINE series, read-out: Cell viability (%)
# [3] = LOPIRITO-DOXYCYCLINE series, read-out: Cell Viability (%)
# [4] = FAVIPIRAVIR-AZITHROMYCIN series, read-out: Cell Viability (%)
# [5] = HYDROXYCHLOROQUINE-AZITHROMYCIN series, read-out: Cell Viability (%)
# [6] = LOPIRITO-AZITHROMYCIN series, read-out: Viability Cell (%)
smiles,measurement,setting,value
"C[C@H]1c2cccc(O)c2C(=O)C2=C(O)[C@]3(O)C(=O)C(C(N)=O)=C(O)[C@@H](N(C)C)[C@@H]3[C@@H](O)[C@@H]21 [DOXY, Doxycycline]","viability at 48 h, 0.2 μg/mL",[1]; [2],96.9%
same,"viability at 48 h, 2 μg/mL",[1]; [2],112%
same,"viability at 48 h, 10 μg/mL",[1]; [2],117%
same,"viability at 48 h, 100 μg/mL",[1]; [2],120%
same,"viability at 48 h, 400 μg/mL",[1]; [2],96.5%
same,CC50 at 48 h,"[1]; LOPIRITO-DOXY experiment (Fig 6), 48 hours, CompuSyn, n = 3, read-out: CC50",16500 µg/mL
same,"viability at 48 h, 0.2 μg/mL",[1]; [3],103%
same,"viability at 48 h, 2 μg/mL",[1]; [3],104%
same,"viability at 48 h, 10 μg/mL",[1]; [3],105%
same,"viability at 48 h, 100 μg/mL",[1]; [3],92.8%
same,"viability at 48 h, 400 μg/mL",[1]; [3],91.7%
same,Virus Titer,"SARS-CoV-2 virus; 1 μg/mL, 24-h",38.42 viral protein fg/mL
same,Virus Titer,"SARS-CoV-2 virus; 15 μg/mL, 24-h",36.90 viral protein fg/mL
same,Virus Titer,"SARS-CoV-2 virus; 15 μg/mL, 48-h",37.85 viral protein fg/mL
same,Virus Titer,"SARS-CoV-2 virus; 15 μg/mL, 72-h",39.15 viral protein fg/mL
same,Drug concentration that produced an undetected virus copy number,"SARS-CoV-2 virus; MoI 0.04, at 24, 48, and/or 72 hours' incubation",37.5 µg/mL
same,IC50,"SARS-CoV-2 virus; 24h, MoI 0.04",18 µg/mL
same,IC50,"SARS-CoV-2 virus; 48h, MoI 0.04",4.7 µg/mL
same,IC50,"SARS-CoV-2 virus; 72h, MoI 0.04",0.4 µg/mL
same,Results (virus detection),"SARS-CoV-2 virus; at the drug concentration of the same line of Table 4, MoI 0.04","24, 48, 72h virus undetected"
same,IL-10,"IL-10; 1 μg/mL, 24-h",35.31 ± 0.22 pg/mL
same,IL-10,"IL-10; 1 μg/mL, 48, 72h","↗↗ (1 μg/mL; 48, 72h)"
same,IL-10,"IL-10; 1 μg/mL, 48-h",219.74 ± 0.08 pg/mL
same,IL-10,"IL-10; 1 μg/mL, 72-h",415.82 ± 0.23 pg/mL
same,IL-10,"IL-10; 15 μg/mL, 24-h",35.31 ± 1.53 pg/mL
same,IL-10,"IL-10; 15 μg/mL, 48-h",219.74 ± 1.41 pg/mL
same,IL-10,"IL-10; 15 μg/mL, 72-h",702.97 ± 0.07 pg/mL
same,IL-6,"IL-6; 1 μg/mL, 24-h",21.06 ± 1.43 ng/L
same,IL-6,"IL-6; 1 μg/mL, 48-h",36.93 ± 0.93 ng/L
same,IL-6,"IL-6; 1 μg/mL, 72-h",40.56 ± 0.56 ng/L
same,IL-6,"IL-6; 1 μg/mL, 24h",↘↘ (1 μg/mL; 24h)
same,IL-6,"IL-6; 15 μg/mL, 24-h",13.34 ± 0.86 ng/L
same,IL-6,"IL-6; 15 μg/mL, 48-h",37.98 ± 0.94 ng/L
same,IL-6,"IL-6; 15 μg/mL, 72-h",43.01 ± 0.05 ng/L
same,TNF-α,"TNF-α; 1 μg/mL, 24-h",1.98 ± 0.00 pg/mL
same,TNF-α,"TNF-α; 1 μg/mL, 48-h",408.19 ± 0.77 pg/mL
same,TNF-α,"TNF-α; 1 μg/mL, 72-h",511.16 ± 3.09 pg/mL
same,TNF-α,"TNF-α; 1 μg/mL, 24h",↘↘ (1 μg/mL; 24h)
same,TNF-α,"TNF-α; 15 μg/mL, 24-h",1.98 ± 0.84 pg/mL
same,TNF-α,"TNF-α; 15 μg/mL, 48-h",408.19 ± 0.84 pg/mL
same,TNF-α,"TNF-α; 15 μg/mL, 72-h",529.12 ± 0.46 pg/mL
"CC[C@H]1OC(=O)[C@H](C)[C@@H](O[C@H]2C[C@@](C)(OC)[C@@H](O)[C@H](C)O2)[C@H](C)[C@@H](O[C@@H]2O[C@H](C)C[C@H](N(C)C)[C@H]2O)[C@](C)(O)C[C@@H](C)CN(C)[C@H](C)[C@@H](O)[C@]1(C)O [AZI, Azithromycin]","viability at 48 h, 0.2 μg/mL",[1]; [4],115%
same,"viability at 48 h, 2 μg/mL",[1]; [4],107%
same,"viability at 48 h, 10 μg/mL",[1]; [4],110%
same,"viability at 48 h, 100 μg/mL",[1]; [4],139%
same,"viability at 48 h, 400 μg/mL",[1]; [4],90.9%
same,"viability at 48 h, 2 μg/mL",[1]; [5],94.2%
same,"viability at 48 h, 10 μg/mL",[1]; [5],104%
same,"viability at 48 h, 100 μg/mL",[1]; [5],110%
same,"viability at 48 h, 400 μg/mL",[1]; [5],68.9%
same,"viability at 48 h, 0.2 μg/mL",[1]; [6],84.7%
same,"viability at 48 h, 2 μg/mL",[1]; [6],81.2%
same,"viability at 48 h, 10 μg/mL",[1]; [6],84.6%
same,"viability at 48 h, 100 μg/mL",[1]; [6],89.5%
same,"viability at 48 h, 400 μg/mL",[1]; [6],81.2%
same,Virus Titer,"SARS-CoV-2 virus; 15 μg/mL, 24-h",38.18 viral protein fg/mL
same,Virus Titer,"SARS-CoV-2 virus; 62.5 μg/mL, 48-h",38.78 viral protein fg/mL
same,IC50,"SARS-CoV-2 virus; 24h, MoI 0.04",51.9 µg/mL
same,IC50,"SARS-CoV-2 virus; 48h, MoI 0.04",19.6 µg/mL
same,IC50,"SARS-CoV-2 virus; 72h, MoI 0.04",< 10 µg/mL
same,IL-10,"IL-10; 15 μg/mL, 24-h",32.78 ± 1.18 pg/mL
same,IL-10,"IL-10; 15 μg/mL, 48-h",152.34 ± 1.72 pg/mL
same,IL-10,"IL-10; 15 μg/mL, 72-h",609.92 ± 1.48 pg/mL
same,IL-10,"IL-10; 15 μg/mL, 24h",↗↗ (15 μg/mL; 24h)
same,IL-10,"IL-10; 62.5 μg/mL, 24-h",53.50 ± 1.85 pg/mL
same,IL-10,"IL-10; 62.5 μg/mL, 48-h",91.92 ± 1.45 pg/mL
same,IL-10 levels (in words),IL-10; Table 5,increased
same,IL-6,"IL-6; 15 μg/mL, 24-h",14.55 ± 2.22 ng/L
same,IL-6,"IL-6; 15 μg/mL, 72-h",565.92 ± 0.00 ng/L
same,IL-6,"IL-6; 62.5 μg/mL, 24-h",15.92 ± 0.57 ng/L
same,IL-6,"IL-6; 62.5 μg/mL, 48-h",33.47 ± 3.98 ng/L
same,IL-6,"IL-6; 62.5 μg/mL, 72-h",529.11 ± 0.95 ng/L
same,IL-6 (in words),IL-6; Table 5,reduced
same,TNF-α,"TNF-α; 15 μg/mL, 24-h",6.994 ± 1.32 pg/mL
same,TNF-α,"TNF-α; 15 μg/mL, 48-h",478 ± 1.50 pg/mL
same,TNF-α,"TNF-α; 15 μg/mL, 72-h",777.34 ± 1.67 pg/mL
same,TNF-α,"TNF-α; 62.5 μg/mL, 24-h",86.00 ± 2.84 pg/mL
same,TNF-α,"TNF-α; 62.5 μg/mL, 48-h",381.30 ± 1.28 pg/mL
same,TNF-α,"TNF-α; 62.5 μg/mL, 72-h",641.33 ± 0.00 pg/mL
same,TNF-α,"TNF-α; 24, 48, and 72 hours, cell without concentration",No effects
same,TNF-α levels (in words),TNF-α; Table 5,no effects
